# Data: patent US20230406837A1, “SULFAMATE MODULATORS OF PIN1 ACTIVITY AND USES THEREOF” (Yeda Research and Development Co., Ltd., priority 2022, published 2023)
# “Also recorded” adds a separate entry of the source.
# Columns and labels:
# [1] = GSH consumption (reactivity) assay by LC/MS; details: for reactivity to GSH relative to chloroacetamide (1a): 5 mM GSH, 200 μM electrophile, pH 8, 14° C.; for covalent bond formation with GSH: assay conditions or temperatures up to 37° C. for 24 h
# Mino cells = assay: In situ proteomic labeling with alkyne probes, in-gel fluorescence; assay type: cell-based; details: 2 h
# From the text: FIGS. 5A-5C: α-sulfamate acetamide 1a-aj, and 2a-2c can show up to two orders of magnitude less reactivity towards GSH than chloroacetamide. FIG. 5A: Chemical structures of model α-sulfamate/sulfonate/sulfone acetamides. FIG. 5B: Half-life (t1/2) of the model compounds (1a-1j) assessed by GSH consumption assay via LC/MS (FIG. 4B). FIG. 5C: In situ proteomic labeling with alkyne probes (2a-2c). […] A band that is selectively detected only by compound 2a is indicated by *.
# Sulfamate acetamides show attenuated and tunable proteomic reactivity. To assess proteomic selectivity in cells, two sulfamate acetamides (2a and 2b) and a chloroacetamide (2c) with an alkyne functionality have been synthesized (FIG. 3 and FIG. 4A). Mino cells were treated for two hours with either DMSO or 2a-c. Then, the cells were lysed, labeled the alkynes via copper-catalyzed “click chemistry” (CuAAC) with TAMRA-azide, and imaged the adducts via in-gel fluorescence (FIG. 4C). Similar to their reactivity pattern in the GSH reactivity assay, these compounds labeled various amounts of proteins under cellular conditions.
# [2] = Buffer stability assay (hydrolysis by LC/MS); assay type: physicochemical; details: for hydrolysis in PBS buffer (FIG. 13): 100 μM, pH 8, 37° C. for four days; for hydrolysis in PBS buffer: pH 8, 37° C., after 2 days
# Protocol: FIG. 8: Buffer stability of model compounds. […] The percentage of hydrolysis was quantified using LC/MS at a wavelength of 220 nm.
# FIG. 13: Sulfonate and sulfamate compounds. […] For compounds Sulfopin, 4a, and 4b, spectra at 220 nm were taken to show the peaks. […] “#” refers to hydrolysis product “*” refers to unidentified peak.
# Reaction mixtures were kept at 37° C. with shaking.
# Pin1 [3] = biological target: T1, Pin1 (Homo sapiens, UniProt Q13526); assay: In-vitro Pin1 covalent labeling by intact protein LC/MS; assay type: binding; design: The catalytic domain of Pin1 (2 μM) in 20 mM Tris, 75 mM NaCl, pH 7.5 was incubated with 2 μM Sulfamate; made in house; details: 2 μM compound, 2 μM Pin1, pH 7.5, 1 h, 25° C.
# Protocol: Pin1 was expressed and purified as previously reported^38. The catalytic domain of Pin1 (2 μM) in 20 mM Tris, 75 mM NaCl, pH 7.5 was incubated with 2 μM Sulfamate (4a-4g) for 1 h at 25° C.
# The reaction mixtures, at room temperature for various times, were injected into the LC/MS. For data analysis, the raw spectra were deconvoluted using a 20000:40000 Da (For Pin1, 10000:30000) window and 1 Da resolution. The labeling percentage for a compound was determined as the labeling of a specific compound (alone or together with other compounds) divided by the overall detected protein species.
# Initially, these compounds (4a-4g; 2 μM) were incubated with Pin1 (2 μM; […] Tris buffer; pH 7.5, 1 h; 25° C.) to check covalent labeling by intact protein MS (FIG. 11B,C; FIG. 10).
# Target sequence in this assay (Q13526 52-163 limits assumed): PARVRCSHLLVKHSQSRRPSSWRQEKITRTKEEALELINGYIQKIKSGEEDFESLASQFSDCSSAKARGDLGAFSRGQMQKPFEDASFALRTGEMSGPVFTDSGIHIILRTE
# [4] = DTNB thiol reactivity assay; assay type: physicochemical; details: 200 μM compound, pH 7.4, 37° C.
# Protocol: The compound 5,5′-dithio-bis(2-nitrobenzoic acid) (DTNB; 50 μM) was incubated with 200 μM tris(2-carboxyethyl)phosphine (TCEP) in 20 mM sodium phosphate buffer pH 7.4 and 150 mM NaCl for 5 min at room temperature, to obtain TNB^−2. […] UV absorbance was acquired every 15 min for 7 h. The assay was performed in a 384-well plate using a Tecan Spark 10M plate reader. […] Compounds were measured in triplicate. The data were fitted to a second-order reaction equation such that the rate constant (K) is the slope of ln([A][B0]/[B][A0]), where [A0] and [B0] are the initial concentrations of the compound (200 μM) and TNB^−2 (100 μM), respectively, and [A] and [B] are the remaining concentrations as a function of time as deduced from spectrometric measurements. Linear regression using Prism was performed to fit the rate against the first 7 h of measurements.
# Pin1 Cys113 = biological target: T2, Pin1 Cys113 (Homo sapiens, UniProt Q13526); assay: Competitive isoTOP-ABPP in PATU-8988T cells; assay type: cell-based; details: for peptides labeled with an H/L ratio >2: out of about 3,000 cysteines identified
# T2 construct: endogenous in cells
# T2 sequence (Q13526 whole entry): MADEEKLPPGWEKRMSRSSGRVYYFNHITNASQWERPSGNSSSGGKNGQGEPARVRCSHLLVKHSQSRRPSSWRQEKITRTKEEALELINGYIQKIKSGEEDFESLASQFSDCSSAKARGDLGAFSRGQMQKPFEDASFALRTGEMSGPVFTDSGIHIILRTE
# Protocol: FIGS. 11A-11E: Sulfamate acetamides as potent and selective Pin1 inhibitors. FIG. 11A. Chemical structures of the sulfonate and sulfamate compounds (4a-4g). FIG. 11B. Deconvoluted LC/MS spectrum for Pin1 (2 μM) incubated with 4 g at pH 7.5, 25° C., 1 h. The adduct mass corresponds to a labeling event in which the sulfamate group was released. FIG. 11C. Percent of Pin1 labeling (2 μM) with the probes (4a-4g; 2 μM; y-axis) compared to their intrinsic thiol reactivity as assessed by their rate of reaction in a DTNB assay (x-axis). FIG. 11D. Cellular engagement of the Sulfamates. OCI-AML2 cells were treated with DMSO, Sulfopin or sulfamate compounds (4c, 4d, 4g) at 0.5 and 2.5 μM concentration for 4 hours. Lysates were then incubated with a Sulfopin desthiobiotin (DTB) probe (1 μM), pulled down using streptavidin beads before running a western blot against Pin1. FIG. 11E. IsoDTB ABPP experiment with sulfopin and sulfamate compound 4d. […] The labeled peptides were pull-down with streptavidin beads and analysed by LC/MS/MS (similar protocol to BTK, see FIG. 521; n=4). Proteins in the box have a heavy to light (H/L) ratio ≥2. Only peptides detected in three out of four repetitions are presented.
# Pin1 [5] = biological target: T1, Pin1; assay: Kinetics of Pin1 binding (KI and Kinact) by LC-MS; design: made in house; kinact: unit not given here; details: for Ki: read-out: K1 value (KI)
# From the text: The reaction was monitored by LC-MS. FIGS. 17B and 17D. The rate constants as extrapolated from FIGS. 17A and 17C, respectively, as a function of the concentration of sulfopin and 4d.
# Target sequence in this assay (Q13526 whole entry, the tested form may be a part): as the sequence (Q13526 whole entry) above
# [6] = Metabolic stability in liver microsomes; assay type: in vitro ADME; details: LC/MS/MS
# Protocol: FIG. 14: Sulfamates compounds show high metabolic stability. Compounds (Sulfopin, 4d, 4e, and 4g) were incubated in liver microsomes and injected to LC/MS/MS at indicated time points. The peak intensities of the compounds were measured in UV spectra.
# [7] = Pin1 0.5 μM, 100 mM Tris buffer pH 7.4, 14° C.
smiles,measurement,setting,value
"CNS(=O)(=O)OCC(=O)NCc1ccccc1 [Compound 1d, 2-(benzylamino)-2-oxoethyl Methylsulfamate]",reactivity to GSH relative to chloroacetamide (1a),[1],an order of magnitude less reactivity
"O=C(COS(=O)(=O)NCc1ccccc1)NCc1ccccc1 [Compound 1e, 2-(benzylamino)-2-oxoethyl Benzylsulfamate]",reactivity to GSH relative to chloroacetamide (1a),[1],an order of magnitude less reactivity
"CS(=O)(=O)CC(=O)NCc1ccccc1 [Compound 1i, N-benzyl-2-(methylsulfonyl)acetamide]",covalent bond formation with GSH,[1],did not form a covalent bond with GSH
"O=C(CS(=O)(=O)c1ccccc1)NCc1ccccc1 [Compound 1j, N-benzyl-2-(phenylsulfonyl)acetamide]",covalent bond formation with GSH,[1],did not form a covalent bond with GSH
"C#Cc1ccc(NC(=O)COS(=O)(=O)NCc2ccccc2)cc1 [Compound 2a, 2-((4-ethynylphenyl)amino)-2-oxoethyl Benzylsulfamate]",proteomic reactivity (proteins labeled),Mino cells,enriching more proteins; also recorded: labeled a distinct protein that was not labeled by the chloroacetamide
"C#Cc1ccc(NC(=O)COS(=O)(=O)Nc2ccccc2)cc1 [Compound 2b, 2-((4-ethynylphenyl)amino)-2-oxoethyl Phenylsulfamate]",proteomic reactivity (proteins labeled),Mino cells,low reactivity
"C#Cc1ccc(NC(=O)CCl)cc1 [Compound 2c, 2-chloro-N-(4-ethynylphenyl)acetamide]",proteomic reactivity (proteins labeled),Mino cells,enriching more proteins
"CC(C)(C)CN(C(=O)COS(C)(=O)=O)C1CCS(=O)(=O)C1 (centres unmarked) [Compound 4a, 2-((1,1-dioxidotetrahydrothiophen-3-yl)(neopentyl)amino)-2-oxoethyl Methanesulfonate]",hydrolysis in PBS buffer (FIG. 13),[2],15%
same,hydrolysis in PBS buffer,[2],15%
same,Pin1 labeling by intact protein MS,Pin1 [3],18%
"CNS(=O)(=O)OCC(=O)N(CC(C)(C)C)C1CCS(=O)(=O)C1 (centres unmarked) [Compound 4b, 2-((1,1-dioxidotetrahydrothiophen-3-yl)(neopentyl)amino)-2-oxoethyl Methylsulfamate]",Pin1 labeling by intact protein MS,Pin1 [3],16%
"CC(C)(C)CN(C(=O)COS(=O)(=O)NCc1ccccc1)C1CCS(=O)(=O)C1 (centres unmarked) [Compound 4c, 2-((1,1-dioxidotetrahydrothiophen-3-yl)(neopentyl)amino)-2-oxoethyl Benzylsulfamate]",thiol reactivity relative to Sulfopin,[4],lower thiol reactivity than Sulfopin
same,Pin1 labeling by intact protein MS,Pin1 [3],56%
"CC(C)(C)CN(C(=O)COS(=O)(=O)Nc1ccccc1)C1CCS(=O)(=O)C1 (centres unmarked) [Compound 4d, 2-((1,1-dioxidotetrahydrothiophen-3-yl)(neopentyl)amino)-2-oxoethyl Phenylsulfamate]",competition ratio (H/L) of Pin1 Cys113,Pin1 Cys113,highest competition ratio
same,peptides labeled with an H/L ratio >2,Pin1 Cys113,six
same,thiol reactivity relative to Sulfopin,[4],lower thiol reactivity than Sulfopin
same,binding affinity to Pin1 relative to sulfopin,Pin1 [5]; KI of 4d versus sulfopin,five-times better K1 value; also recorded: five-fold higher binding affinity
same,kinact,Pin1 [5]; [7],2.48
same,Ki,Pin1 [5]; [7],43.6 µM
"CC(C)(C)CN(C(=O)COS(=O)(=O)Nc1ccc(Br)cc1)C1CCS(=O)(=O)C1 (centres unmarked) [Compound 4e, 2-((1,1-dioxidotetrahydrothiophen-3-yl)(neopentyl)amino)-2-oxoethyl (4-bromophenyl)sulfamate]",thiol reactivity relative to Sulfopin,[4],lower thiol reactivity than Sulfopin
"O=C(COS(=O)(=O)Nc1ccccc1)N(CC1CCCCC1)C1CCS(=O)(=O)C1 (centres unmarked) [Compound 4g, 2-((cyclohexylmethyl)(1,1-dioxidotetrahydrothiophen-3-yl)amino)-2-oxoethyl Phenylsulfamate]",thiol reactivity relative to Sulfopin,[4],slightly higher reactivity
same,Pin1 labeling by intact protein MS,Pin1 [3],> 95%
"CC(C)(C)CN(C(=O)CCl)C1CCS(=O)(=O)C1 (centres unmarked) [Sulfopin, reference compound]",hydrolysis in PBS buffer (FIG. 13),[2],30%
same,hydrolysis in PBS buffer,[2],30%
same,metabolic stability,[6],good metabolic stability
same,competition ratio (H/L) of Pin1 Cys113,Pin1 Cys113,highest competition ratio; also recorded: more complete target engagement
same,peptides labeled with an H/L ratio >2,Pin1 Cys113,six
same,Ki,Pin1 [5]; [7],217 µM
same,Pin1 labeling by intact protein MS,Pin1 [3],59%
